The results in this text go back to patent publication US20180325947A1, “USE OF MAPK INHIBITORS TO REDUCE LOSS OF HEMATOPOIETIC STEM CELLS DURING EX VIVO CULTURE AND/OR GENETIC MANIPULATION” (Children's Hospital Medical Center, priority 2015, published 2018).

Molecules are shown by their SMILES. “Also recorded” adds a separate entry of the source.

This test deals with human CD33+ myeloid, CD19+ B-lymphoid and CD34+ HSPC progeny. The test can be described thus: multi-lineage reconstitution (myeloid skewing) in 1T NSG mice 24 weeks post transplantation. The format is in vivo. As to the method:
FIG. 2. A preclinical model for studying adult human HSC ex vivo manipulation and gene transfer and its effect on LTRP. (Panel A) Freshly isolated or thawed mobilized peripheral blood (MPB) derived CD34+ cells were utilized for the study. Two different protocols were utilized for the study where lentivirus (LV) or γ-Retrovirus (RV) mediated gene transfer was performed at indicated time points. 0 h, 18-24 h, 36-42 h, and 72-96 h indicates the total amount of time where cells were exposed in the ex vivo culture after CD34 isolation before injection into NSG mice. (Panel B) After indicated time in culture and transduction, 1 million CD34+ starting equivalent cells were transplanted per NSG mouse after TBI intravenously (primary transplant=1T). Primary human engraftment and multi-lineage reconstitution was analyzed in mice at indicated time periods after bone marrow harvest at 6 and 12 weeks (wks) from left and right femurs, and after sacrifice at 24 wks, from all bones. A portion of cells were analyzed for FACS and the rest were depleted of mouse CD45+ cells and transplanted one to one, into secondary mice (secondary transplant=2T).
Human MPB derived CD34^+ cells either fresh or thawed were cultured and transduced with lentivirus (LV) or retrovirus (RV) expressing GFP for the indicated time points. Cells were harvested and phospho-p38MAPK was detected by flow cytometry. […] Data expressed as mean±SEM from 5 independent experiments (n=12-21 mice per group). […]
Next, the multi-lineage reconstitution was analyzed at 6, 12 and 24 weeks in BM of 1T animals, both of the untransduced (GFP^−) versus transduced (GFP^+) progeny. […]

For the compound `Cc1ccc(-n2nc(C(C)(C)C)cc2NC(=O)Nc2ccc(OCCN3CCOCC3)c3ccccc23)cc1` [BIRB-796, 1-[5-tert-butyl-2-(4-methylphenyl)pyrazol-3-yl]-3-[4-(2-morpholin-4-ylethoxy)naphthalen-1-yl]urea], the “myeloid skewing phenotype (overall)” value (1T mice 24 weeks post transplantation, listed as p38i) is listed as “significantly revert this phenotype but only partially; also recorded: partially reverts”. The myeloid lineage skewing result runs as follows: (72-96 h RV group) “some improvement”; (HSPC transduced within the first 24 h with LV, cultures up to 72-96 h) “restored to levels similar to untransduced cells or 0 h controls”.
